# Results published in patent US10232023B2, “Methods for treatment of and prophylaxis against inflammatory disorders” (THE UNIVERSITY OF UTAH RESEARCH FOUNDATION, priority 2013, dated 2019).
# Legend:
# human PMNs and platelets = assay: Platelet/PMN aggregation; type: cell-based; settings: LPS-stimulated PMNs mixed with thrombin-stimulated platelets
# Experimental: Using protocols modified from Saboor et al., […] Med Sci, 2013, 20: 62-66, human PMNs (2×10^6 cells/mL) were isolated and incubated with […] or SCR (0.1-10 ng/ml) for 1 hour prior to addition of freshly isolated human platelet at a ratio of 100:1 for another 15 minute incubation. After this period, the cells (PMNs and platelets) were stimulated with thrombin (0.1 IU/mL) or control M-199 media for 1 hour. The cells were stained for 20 minutes with the following primary monoclonal antibodies: PE-conjugated CD41 and FITC-conjugated CD16. Isotype and fluorochrome matched control antibodies were used. Flow cytometry was performed using BECTON-DICKINSON FACSCAN and CELLQUEST software.
# human platelets = assay: Platelet activation (P-selectin expression); type: cell-based; settings: given alone or following thrombin stimulation (0.1 IU/mL)
# Experimental: Using protocols modified from van Velzen, et al., Thromb Res, 2012, 130: 92-98, human platelets (1×10^8 cells/mL) were incubated with CRISPP or SCR (0.1-10 ng/ml) for 1 hour followed by stimulation with thrombin (0.1 IU/mL) or control M-199 media for 15 minutes. The cells were prepared for FACS analysis with the following primary, monoclonal antibodies for 20 minutes: PE-conjugated CD41a (platelet-specific marker) and FITC-conjugated CD62P (P-selectin). Isotype and fluorochrome matched control antibodies were used. After incubation at room temperature in the dark, the cells were lysed with FACS lysis buffer and analyzed by flow cytometry (BECTON-DICKINSON FACSCAN, CELLQUEST software).
# [1] = test system: Outbred Swiss-Webster mice, E. coli peritonitis; assay: Murine E. coli peritonitis: peritoneal fluid and membrane analysis; type: in vivo, mouse
# Experimental: Outbred Swiss-Webster mice were injected intraperitoneally with 4.5×10^7 colony-forming units (cfu) of E. coli±nNIF, CRISPP, or scrambled control peptide (SCR) (10 mg/kg, IP injection) one hour prior to E. coli infection. At the 3 hour time point after infection, 3 mice were sacrificed and the peritoneal fluid and peritoneal tissue were collected and analyzed for leukocyte accumulation, bacteriology, and in vivo NET formation. […] See Fuchs et al., J Cell Biol, 2007, 176: 231-241. The number of E. coli cfu/mL of peritoneal fluid in CRISPP pretreated mice was also determined compared to SCR mice (see FIG. 17C).
# Animals were treated with CRISPP (10 mg/kg), nNIF (10 mg/kg), or SCR (10 mg/kg) by i.p. injection 1 hour prior to infection (E. coli, 4.5×10^7 cfu/mouse, i.p. injection) or stimulation (LPS, 25 mg/kg, i.p. injection (SIGMA)). Control mice were injected with saline alone. The mice were sacrificed in a CO2 chamber 3 hours post-infection/stimulation with the peritoneal contents harvested and analyzed. Briefly, the skin of the abdomen was cut open in the midline after thorough disinfection and without injuring the muscle. The peritoneal cavity was lavaged with sterile saline solution ([…]) and analyzed for in vivo NET formation, bacteriology, and leukocyte accumulation. NETs in the peritoneal fluid were qualitatively and quantitatively analyzed using live cell imaging with confocal microscopy and histone release assays. NETs on the inner surface of the peritoneal membrane were assessed quantitatively using live cell imaging followed by standardized grid analysis of 5 randomly selected high power visual fields per tissue sample (IMAGE-J software, NIH). Peritoneal bacterial colony forming units (cfu) counts were quantified by permeabilizing all recovered leukocytes with 0.1% Triton-X 100 for 10 minutes and performing serial dilutions and bacterial cultures on 5% sheep blood agar plates (HARDY DIAGNOSTICS). After a 24-hour incubation, bacterial counts were determined. Total leukocyte counts in the peritoneal lavage were determined in Neubauer chambers using an optical microscope after dilution in Turk's solution (2% acetic acid). Differential leukocyte analysis was performed using a 60× oil immersion objective to assess morphology of cyto-centrifuged cells stained with May-Grunwald-Giemsa dye.
# [2] = test system: LPS-stimulated human PMNs; assay: Reactive oxygen species generation, dihydrorhodamine assay; type: cell-based; settings: 1 nM, 1 hour pre-incubation; LPS 100 ng/mL
# Experimental: Human PMNs isolated from healthy adult whole blood were resuspended to a concentration of 2×10^6 cells/mL in M-199 media and pre-incubated±[…] (1 nM) or SCR (1 nM) peptide for 1 hour under standard conditions. The PMNs were then stimulated with LPS (100 ng/mL) for 1 hour, washed, and resuspended with a dihydrorhodamine (7.25 mM; D-632, MOLECULAR PROBES) and catalase (1000 Units/mL; C-40, SIGMA) mixture and incubated at 37° C. for 10 minutes. After incubation, samples were placed at 4° C. and analyzed for ROS-dependent fluorescence using a BECTON-DICKINSON FACSCAN device equipped with CELLQUEST software.
# [3] = test system: PMNs isolated from healthy adult donors; assay: PMN phagocytosis of E. coli BIOPARTICLES; type: cell-based, human; settings: 1 nM, 60 minutes pre-incubation, 4 hours
# Experimental: PMNs were isolated from blood of healthy adult donors and resuspended in M-199 at a concentration of 2×10^6 cells/mL. Leukocytes were pre-incubated for 60 minutes under standard conditions with cytochalasin B and […] (1 nM), or SCR (1 nM). Following pre-incubation, PMNs were incubated with 6×10^6 E. coli BIOPARTICLES (E-13231, MOLECULAR PROBES) on a rotator for 4 hours under standard conditions. The PMNs were then washed and resuspended in the starting volume in M-199 before being spun down onto glass coverslips and fixed with 2% paraformaldehyde for 10 minutes and permeabilized with 0.1% Triton-X-100 for 10 minutes. Leukocytes were stained with WGA 555 (INVITROGEN) and TO[…] (MOLECULAR PROBES) and randomly selected high power visual field images were captured using confocal microscopy. IMAGE-J software (NIH) was used to determine the percentage of PMNs that were positive for fluorescently labeled E. coli BIOPARTICLES detected at 488 nm.
# [4] = 10 mg/kg IP pretreatment, vs SCR control
substance,measurement,setting,value
"Cancer-Associated SCM-Recognition, Immune Defense Suppression, and Serine Protease Protection Peptide [CRISPP, nNIF-related peptide (nNRP)]",Platelet/PMN association (flow cytometry),human PMNs and platelets,did not alter
same,Platelet p-selectin expression,human platelets,did not alter
same,Peritoneal PMN accumulation,"[1]; 10 mg/kg IP one hour prior to E. coli, 3 hours after infection, vs E. coli alone or SCR",significant increase
same,Peritoneal fluid bacterial concentration (E. coli cfu/mL),"[1]; 10 mg/kg IP one hour prior to E. coli, 3 hours after infection, vs SCR",significant increase
same,NET formation by histone H3 release assay of the peritoneal fluid,[1]; [4],significant quantitative decrease
same,NET formation in the peritoneal fluid (live cell imaging),[1]; [4],qualitative decrease
same,Peritoneal membrane-associated NET formation,"[1]; freshly resected peritoneal membrane, live cell imaging, standardized grid",qualitative and quantitative decrease
same,Reactive oxygen species generation,[2],did not significantly inhibit
same,PMN phagocytosis,[3],did not significantly inhibit
